In paper doi:10.1101/2023.12.06.570349v1 (biorxiv, 2023):

Tests used:
H3R-365 [1] = target: T1, H3R-365 (Homo sapiens, UniProt Q9Y5N1); assay: biochemical
H3R-453 [2] = target: T2, H3R-453 (Homo sapiens, UniProt Q9Y5N1); settings: […] Tris-HCl pH […] °C, […] h; labelled compound
H3R-415 [3] = target: T3, H3R-415 (Homo sapiens, UniProt Q9Y5N1); assay: biochemical
H3R-413 [4] = target: T4, H3R-413 (Homo sapiens, UniProt Q9Y5N1, DEL274-305); assay: biochemical
H3R-373 [5] = target: T5, H3R-373 (Homo sapiens, UniProt Q9Y5N1, INS445KMKKKTCL); settings: […] Tris-HCl pH […] °C, […] h; labelled compound
H3R-445 [6] = target: T6, H3R-445 (Homo sapiens, UniProt Q9Y5N1); assay: biochemical
H3R-373 [7] = target: T5, H3R-373
H3R-453 [8] = target: T2, H3R-453
H3R-365 [9] = target: T1, H3R-365; assay: biochemical; remark: listed apart in the source
H3R-365 [10] = target: T1, H3R-365; assay: cell-based; set-up: species or system HEK293-EPAC stably expressing H3R isoform; settings: HEK293-EPAC stably expressing H3R isoform, read-out: H3R-365 α
H3R-445 [11] = target: T6, H3R-445; assay: biochemical; remark: listed apart in the source
H3R-453 [12] = target: T2, H3R-453; assay: cell-based; set-up: species or system HEK293-EPAC stably expressing H3R isoform; settings: HEK293-EPAC stably expressing H3R isoform, read-out: H3R-453 α
H3R-415 [13] = target: T3, H3R-415; assay: cell-based; set-up: species or system HEK293-EPAC stably expressing H3R isoform; settings: HEK293-EPAC stably expressing H3R isoform, read-out: H3R-415 α
H3R-415 [14] = target: T3, H3R-415; assay: biochemical; remark: listed apart in the source
H3R-445 [15] = target: T6, H3R-445; assay: cell-based; set-up: species or system HEK293-EPAC stably expressing H3R isoform; settings: HEK293-EPAC stably expressing H3R isoform, read-out: H3R-445 α
H3R-413 [16] = target: T4, H3R-413; assay: biochemical; remark: listed apart in the source
H3R-373 [17] = target: T5, H3R-373; assay: cell-based; set-up: species or system HEK293-EPAC stably expressing H3R isoform; settings: HEK293-EPAC stably expressing H3R isoform, read-out: H3R-373 α
H3R-413 [18] = target: T4, H3R-413; assay: cell-based; set-up: species or system HEK293-EPAC stably expressing H3R isoform
H3R-413 [19] = target: T4, H3R-413; assay: cell-based; set-up: species or system HEK293-EPAC stably expressing H3R isoform; settings: HEK293-EPAC stably expressing H3R isoform, read-out: H3R-413 α

Row | SMILES | Kd (H3R-365 [1]) [nM] | pKD (H3R-453 [2]) | Kd (H3R-415 [3]) [nM] | Kd (H3R-413 [4]) [nM] | pKD (H3R-373 [5]) | Kd (H3R-445 [6]) [nM] | Ki (H3R-373 [7]) [nM] | Ki (H3R-453 [8]) [nM] | Ki (H3R-365 [9]) [nM] | Emax (H3R-365 [10]) [%] | Ki (H3R-445 [11]) [nM] | Emax (H3R-453 [12]) [%] | Emax (H3R-415 [13]) [%] | Ki (H3R-415 [14]) [nM] | Emax (H3R-445 [15]) [%] | Ki (H3R-413 [16]) [nM] | Emax (H3R-373 [17]) [%] | EC50 (H3R-413 [18]) [nM] | Emax (H3R-413 [19]) [%]
1 | CNCCc1c[nH]cn1 [[3H]NAMH] | 0.501 | 9.0 ± 0.1 | 1.26 | 1.26 | 9.6 ± 0.1 | 1.26 | – | – | – | – | – | – | – | – | – | – | – | – | –
2 | NCCCCCc1c[nH]cn1 [impentamine, 5-(3H-imidazol-4-yl)pentan-1-amine] | – | – | – | – | – | – | 1.58 | 3.16 | 2 | 100 ± 30 | 2.51 | 50 ± 10 | 50 ± 10 | 3.98 | 60 ± 20 | 3.98 | 70 ± 10 | 6.31 | 50 ± 10
